US8847018B2, “Plants tolerant to HPPD inhibitor herbicides” (Bayer CropScience AG, priority 2009, dated 2014)
Entries after “also recorded” stand apart in the source; their conditions may differ.

What was measured:
[1] = system: Rhodococcus HPPD SEQ ID No. 19 (FMP23e); assay: biochemical; format: biochemical, Rhodococcus sp. (strain RHA1), isolate ro02040; settings: SEQ ID No. 19
[2] = system: tobacco calli containing HPPD SEQ ID No. 7 (Rhodococcus); assay: Rooting of calli on media with tembotrione; format: cell-based, Nicotiana tabacum; settings: calli containing SEQ ID No. 7; 6 to 12 weeks
Method: (§1) The leaf disks were co-cultivated for 2 days with Agrobacterium tumefaciens cells containing either the binary vector FMP22ebv, FMP23ebv or AtHPPDbv. Then the leaf disks were transferred to a media allowing the regeneration of shoots for 6 weeks on MS (Musharige and Skoog, (1962), Physiol Plant 15(3): 473-497) media supplemented with BAP ([…]; Benzylaminopurine), carbenicillin ([…]), cefotaxine (250 mg/mL), kanamycin (75 mg/mL) and tembotrione (10^−6 M)
(§2) Regenerated calli were transferred on media to induce the development of roots for 6 to 12 weeks: MS (½), supplemented with carbenicillin (250 mg/mL), cefotaxine (250 mg/mL), kanamycin (75 mg/mL), and tembotrione (10^−6 M).
(§3) Regenerated shoot calli from a cell transformed with a nucleic acid sequence encoding an HPPD comprising SEQ ID No. 11 (Arabidopsis thaliana) SEQ ID No. 21 or SEQ ID No. 7 (Rhodococcus) were transferred to a media inducing root growth which media was further supplemented with the HPPD inhibitor tembotrione for 6 to 12 weeks.

[3] = system: tobacco calli containing HPPD SEQ ID No. 21 (Rhodococcus); assay: Rooting of calli on media with tembotrione; format: cell-based, Nicotiana tabacum; settings: calli containing SEQ ID No. 21; 6 to 12 weeks
Method: as §1, §2, §3

[4] = system: tobacco calli containing HPPD SEQ ID No. 11 (Arabidopsis thaliana); assay: Rooting of calli on media with tembotrione; format: cell-based, Nicotiana tabacum; settings: calli containing SEQ ID No. 11; 6 to 12 weeks
Method: as §1, §2, §3

[5] = target: (Rhodococcus jostii, UniProt Q0SF39); assay: HPLC assay of HPPD in vitro kinetic properties; format: biochemical, Rhodococcus sp. (strain RHA1), isolate ro02040
[6] = target: Rhodococcus HPPD SEQ ID No. 19 (FMP23e); assay: HPLC assay of HPPD in vitro kinetic properties; format: biochemical, Rhodococcus sp. (strain RHA1), isolate ro02040; settings: 2 mM HPP; SEQ ID No. 19
[7] = system: soybean plants expressing the FMP22 HPPD protein; assay: Greenhouse treatment of soybean events with tembotrione; format: in vivo; settings: one FMP22 event; 100 g AI/ha, ten days after application
Method: (§4) Plants containing the transgene were then sprayed with HPPD inhibitor herbicides, as for example with tembotrione at a rate of 100 g Al/ha. Ten days after the application the symptoms due to the application of the herbicide were evaluated and compared to the symptoms observed on a wild type plants under the same conditions.
(§5) Concerning FMP22, one event expressing the FMP22 HPPD protein have been generated from the green shoots of above and were transferred to the greenhouse. Four weeks after acclimation, i.e. plants at a developmental stage of 3-4 internodes were treated with 100 g Al/ha tembotrione prepared from a WP 20 formulation supplemented with ammonium sulfate and methyl ester raps oil. Ten days after application, the symptoms caused by the application of the HPPD inhibitor herbicide were evaluated and compared to the symptoms observed on treated non-transgenic wild-type soybean plants. […] Concerning FMP23, six events expressing the FMP23 HPPD protein have been generated from the green shoots of above and were transferred to the greenhouse. […] Ten days after application, the symptoms caused by the application of the HPPD inhibitor herbicide were evaluated and compared to the symptoms observed on treated non-transgenic wild-type soybean plants.

[8] = system: soybean plants expressing the FMP23 HPPD protein; assay: as above; format: in vivo; settings: six FMP23 events; 100 g AI/ha, ten days after application
Method: as §4, §5

**Q.** What does the source list for `CS(=O)(=O)c1ccc(C(=O)C2C(=O)CCCC2=O)c(Cl)c1COCC(F)(F)F` [Tembotrione, 2-[2-chloro-4-(methylsulfonyl)-3-[(2,2,2,-tri-fluoroethoxy)methyl]benzoyl]-1,3-cyclo-hexanedione]?
**A.** pI50 ([1]; 2 mM HPP, 3 minutes incubation): 5.1; percentage of inhibition compared to activity in absence of the inhibitor ([1]; 5.0 × 10^−6 M inhibitor): 70%; % Elongation & rooting on 10^−6 M tembotrione [2]: 65%; root growth on media with tembotrione [2]: clearly developed numerous and healthy roots; % Elongation & rooting on 10^−6 M tembotrione [3]: 63%; root growth on media with tembotrione [3]: clearly developed numerous and healthy roots; root growth on media with tembotrione [4]: On none of the events containing the HPPD defined by SEQ ID No. 11 (Arabidopsis thaliana) or none transformed calli, root growth was observed; kon ([5]; read-out: k1 (Kon, association rate constant)): 3200 M⁻¹ s⁻¹; koff ([5]; read-out: k−1 (Koff, enzyme-inhibitor complex dissociation)): 0.0063 s⁻¹; Ki [6]: 2000 nM; symptoms caused by the herbicide [7]: transitory light bleaching symptoms but recovered 14 days after tembotrione application; symptoms caused by the herbicide [8]: One of the six events didn't show any bleaching phenotype; also recorded: One event showed transitory light bleaching symptoms but recovered 14 days after tembotrione application; also recorded: remaining four events exhibited the bleaching like non-transgenic wild-type soybean plant
